Source: patent US20240373850A1, “Compositions comprising resinous exudate metabolites from plants of the genus Adesmia, used to control and treat infections in plant crops; and methods for controlling infections in plant crops” (PONTIFICIA UNIVERSIDAD CATÓLICA DE VALPARAÍSO, priority 2021, published 2024)
“And” between values parts separate entries of the source, which are not always exact repeats. Equal entries are not always repeated. Where two headings read alike, the source gives them in different places.

What was measured:
[1] = test system: Pseudomonas syringae pv actinidiae code 770; experiment: Antibacterial micro-dilution test (MIC), Psa 770; assay type: cell-based; conditions: read-out: MIC Psa 770
Procedure: (§1) Antibacterial test of secondary metabolites isolated from the resinous exudates of Adesmia plants against the pathogen (Psa), from isolates made in Chile and Italy, also tested on other bacteria of interest, in vitro.
(§2) All strains were cultivated in Nutrient culture medium supplemented with 3% sucrose (SNA), and incubated at 27° C. The bacterial inoculum was produced in Mueller-Hinton (MH) culture medium in glass test tubes and incubated at 27° C. in an orbital shaker at 150 rpm in the dark for 24 hours. A stock solution of each molecule was prepared to obtain a concentration of 2000 mg/L, later they were diluted in a 96-well microplate with MH culture medium and thus obtain the different concentrations of […] of each molecule. The antibacterial activity of the molecules was determined by the method of micro-dilution of the substance to be tested. Four controls were used: negative control (only MH liquid culture medium inoculated with bacteria); positive control (liquid MH culture medium adding Chloramphenicol at the same concentrations tested inoculated with bacteria and in the case of the Italian strain, copper sulfate was added), negative control (1) only substances plus solvent (liquid MH culture medium plus ethanol at 1% without inoculating bacteria) and a white control (only MH liquid culture medium, without inoculating). The bacterial suspension of each of the strains was adjusted to 0.5 McFarland (1×10^8 cfu/ml), inoculating 1.5 μL per well in the microplate and subsequently incubated at 27° C. for 24 hours.
(§3) The absorbances or optical density (O.D) were converted to percentage of antibacterial inhibition (PIAB) using the following formula:
(§4) In addition, […] aliquots of each of the concentrations were swept in a petri dish to observe the presence or absence of Psa colonies after 48 hours.

[2] = test system: Pseudomonas syringae syringae; experiment: Antibacterial micro-dilution test (MIC), Pss; assay type: cell-based; conditions: MH medium, 27° C., 24 hours
Procedure: as §1
(§5) All strains were cultivated in Nutrient culture medium supplemented with 3% sucrose (SNA), and incubated at 27° C. The bacterial inoculum was produced in Mueller-Hinton (MH) culture medium in glass test tubes and incubated at 27° C. in an orbital shaker at 150 rpm in the dark for 24 hours. A stock solution of each molecule was prepared to obtain a concentration of 2000 mg/L, later they were diluted in a 96-well microplate with MH culture medium and thus obtain the different concentrations of […] of each molecule. The antibacterial activity of the molecules was determined by the method of micro-dilution of the substance to be tested. […]
(§6) Through the evaluation of absorbance at 600 nm in an Accu Reader M965 spectrophotometer, those treatments that were effective in inhibiting growth compared to the negative control were selected, to subsequently quantify the percentage of inhibition. The absorbances or optical density (O.D) were converted to percentage of antibacterial inhibition (PIAB) using the following formula: […]

Bacillus subtilis = experiment: Antibacterial micro-dilution test (MIC), B.s; assay type: cell-based; conditions: read-out: MIC B.s
Procedure: as §1, §2, §6

[3] = test system: Pseudomonas syringae pv actinidiae code 8.43; experiment: Antibacterial micro-dilution test (MIC), Psa 8.43; assay type: cell-based; conditions: read-out: MIC Psa 8.43
Procedure: as §1, §2, §3, §4

Erwinia carotovora = experiment: Antibacterial micro-dilution test (MIC), E.c; assay type: cell-based; conditions: Pectobacterium carotovorum, read-out: MIC E.c
Procedure: as §1, §5, §6

E. carotovora = experiment: Membrane integrity by Sytox Green staining, E. carotovora; assay type: cell-based, Erwinia carotovora; conditions: 50 ug/mL, 3 hours of incubation, fluorescence microscope
Procedure: FIG. 11: Effect of 2′, 4′ dihydroxychalcone on the integrity of the cell membrane of E. carotovora. The bacteria were incubated in a culture medium at 22 QC in the presence of 30% (v/v) ethanol (a), 5% methanol; 50 ug/mL of the compound against E. carotovora seen in bright field (b) and seen under fluorescence (c) for 3 hours of incubation.
(§7) Determination of the effect of compound 2 4′ dihydroxychalcone (compound No. 4) on the integrity of the membrane of Gram negative and Gram positive bacteria.
(§8) Because several studies have established that phenolic compounds destroy the bacterial membrane, the effect of the major compound […] (compound No. 4) present in the exudate of plants of the Adesmia genus was evaluated, which was attributes the antibacterial activity that they present against Pseudomonas syringae pv actinidiae (Psa). It was tested against Gram-negative bacteria of agricultural importance Erwinia carotovora by Sytox Green staining. […] In this way, through the observation of nuclei stained with Sytox in the fluorescence microscope (100×), it is evident that the mechanism of action of the compound against both the Gram positive bacteria S. aureus and Gram negative E. carotovora is the destruction of the plasma membrane (FIG. 11c).

S. aureus = experiment: Membrane integrity by Sytox Green staining, S. aureus; assay type: cell-based; conditions: 50 ug/mL, 3 hours of incubation, fluorescence microscope
Procedure: as §7, §8

[4] = test system: Pseudomonas syringae pv actinidiae (Psa) 190770; experiment: In vivo antibacterial activity test in Kiwi seedlings, phytopathological evaluation; design: species or system Kiwi A. chinensis; conditions: 500 ug/mL
Text: In vivo antibacterial activity tests of the compounds of the present invention, in Kiwi crops.
It is important to point out that the Chilean patent application 0881-2018 of the same inventors of the present invention, describes a procedure to prepare a composition obtained from resinous exudates of the aerial parts of plants of the genus Adesmia, to control in vitro and in vivo infections. in plant crops. In addition, methods for controlling infections in plant crops are described, which comprise applying said composition to crops infected with various microorganisms. […] For this, Kiwi A. chinensis seedlings from in vitro propagation were used. The bacterium Pseudomonas syringae pv actinidiae (Psa) 190770 used in the in vitro tests was used. The plants were kept in aseptic chambers with 50% relative humidity, under controlled temperature conditions (20° C.±2) and a photoperiod regimen of 12 hours of light and 12 hours of darkness. Both the application of the treatments and inoculation were applied in the summer season. The bacterial inoculum was sprayed on the surface of the leaves of the plants, which had been subjected to small wounds on the leaves. […] Control plants were only sprayed with sterile distilled water and kept isolated from the others treated with Psa.
(§9) The evaluations were made periodically to observe the symptoms of the plant (Table No. 4) and the samples were taken at the third and fourth week from the inoculation, in which the leaves were collected at the moment of beginning to see symptoms or in their defect a month after starting the trial, they were frozen in RNALater® and stored at −80° C. for RNA isolation.

[5] = test system: Pseudomonas syringae pv actinidiae (Psa); experiment: Absolute quantification of Psa infecting kiwi plants by qRT-PCR; assay type: in vivo, Kiwi A. chinensis; conditions: leaves, 3-4 weeks after inoculation, replicate runs; listed as Treatment 3
Procedure: as §9
For this, the total RNA of the problem samples was isolated from 80 to 100 mg of tissue from the leaves of A. chinensis belonging to the applied treatments, which were extracted with the E.Z.N.A.® PLANT RNA Kit using the protocol for difficult samples described by the manufacturer and the concentration of the extracted material was quantified through the Nanodrop equipment. The qRT-PCR was performed using the AriaMx Realtime PCR System equipment, using the Takion Sybrgreen+One step converter kit and specific primers synthesized by IDT (Integrated DNA Technologies) (See Table 6).
The program conditions were 48° C. for 10 min, 95° C. for 3 min, followed by 40 cycles of 95° C. for 10 sec, alignment and extension at 60° C. for 50 sec; then the melting curves 95° C. for 30 sec., 65° C. for 30 sec., and 95° C. for 30 sec. […] The number of copies/ng of Total Psa RNA were calculated through the equation of the straight line provided by the equipment, which was analyzed with the standard curve included in each qRT-PCR run.

[6] = micro-dilution, MH medium, 27° C., 24 hours

SMILES | MIC ([1]; 24 h) | MIC [2] | MIC (Bacillus subtilis; [6]) | MIC [3, 6] | MIC [1, 6] | MIC ([3]; 24 h) | further results
CC(C)=CCc1c(O)cc(O)c2c1O[C@H](c1ccccc1)CC2=O [Compound 2, glabranin] | ≥ 400 µg/mL | – | – | – | – | – | –
COc1ccc(C(=O)CCc2ccccc2)c(OC)c1 [Compound 9, 2′,4′-dimethoxydihydrochalcone] | – | ≥ 50 µg/mL | ≥ 10 µg/mL | ≥ 1600 µg/mL | ≥ 400 µg/mL | – | MIC (Erwinia carotovora; [6]): ≥ 10 µg/mL
O=C(/C=C/c1ccccc1)c1c(O)cc(O)cc1O [Compound 10, 2′,4′, 6′-trihydroxy chalcone] | – | ≥ 50 µg/mL | ≥ 10 µg/mL | ≥ 50 µg/mL | ≥ 50 µg/mL | – | –
CC(C)=CCc1c(O)ccc(C(=O)/C=C/c2ccccc2)c1O [Compound 3, isochordine] | ≥ 1600 µg/mL | – | – | – | – | – | –
CC(C)=CCc1cc(C(=O)CCc2ccccc2)c(O)cc1O [Compound 1] | ≥ 400 µg/mL | – | – | – | – | ≥ 200 µg/mL | –
O=C(/C=C/c1ccccc1)c1ccc(O)cc1O [Compound 4, 2′,4′-dihydroxychalcone] | ≥ 200 µg/mL | – | – | – | – | ≥ 50 µg/mL | effect on the integrity of the plasmatic membrane (E. carotovora): alteration of the plasmatic membrane was observed; effect on the integrity of the plasmatic membrane (S. aureus): alteration of the plasmatic membrane was observed; MIC (Bacillus subtilis; 24 h): ≥ 10 µg/mL; in vivo inhibition of the disease caused by Psa in Kiwi cultures [4]: in vivo inhibition of the disease; plants without visual symptoms of the disease (level 0, healthy plants) ([4]; preventive treatment): 60%; Percentage of incidence ([4]; preventive, sprayed 24 hours before inoculation): 40%; Level of Incidence according to category (Maximum value 3) ([4]; preventive, sprayed 24 hours before inoculation, damage scale 0-3 of Table No. 4): 0.4; Ct [5]: 29.17 and 27.80 and 30.01; MIC (Erwinia carotovora; 24 h): ≥ 10 µg/mL
